Read-outs that look alike come from different tables or passages of the source.
Key:
[1] = test system: HCT 116 colon cancer cell line; assay: MTS-based cell proliferation inhibition assay; conditions: 72 h, dose-dependent (FIG. 2)
Experimental: The cell proliferation agent, 3-(4,5-dimethylthiazol-2-yl)-5-(3-carboxymethoxyphenyl)-2-(4-sulfophenyl)-2H-tetrazolium (“MTS”), was purchased from Promega (Madison, Wis.) and phenazinemethosulfate from Sigma-Aldrich (St. Louis, Mo.). Cultured cell lines were seeded in 96-well plates at 3×10^3 cells/well, maintained overnight at 37° C., and incubated in the presence of the tested compounds at various concentrations. […] Cells were incubated in 10 μL of this solution at 37° C. for 3 h and the UV absorption at 490 nm was measured. Vehicle-treated cells was used as the negative control. The IC50 values and the Hill slopes were generated using Graphpad Prism 5.0. All data were expressed as mean±SD.

[2] = target: β-catenin/Tcf4 interaction (Homo sapiens (Human), UniProt P35222); assay: Fluorescence polarization (FP) competitive inhibition assay, β-catenin/Tcf4; type: binding
Experimental: Experiments were performed in 96-well Microfluor 2 black plates (Waltham, Mass.), and the samples were read by a Synergy 2 plate reader (Biotek, Winooski, Vt.). […] The final reaction volume is 100 μL.
In the foregoing equation, mP, is the signal of the positive control; mPbound is the signal of the negative control; and mP is the signal of the tested inhibitor compound.

[3] = Table 2, mean ± standard deviation (n=3), read-out: Ki FP

Chain of β-catenin/Tcf4 interaction (P35222 138-686): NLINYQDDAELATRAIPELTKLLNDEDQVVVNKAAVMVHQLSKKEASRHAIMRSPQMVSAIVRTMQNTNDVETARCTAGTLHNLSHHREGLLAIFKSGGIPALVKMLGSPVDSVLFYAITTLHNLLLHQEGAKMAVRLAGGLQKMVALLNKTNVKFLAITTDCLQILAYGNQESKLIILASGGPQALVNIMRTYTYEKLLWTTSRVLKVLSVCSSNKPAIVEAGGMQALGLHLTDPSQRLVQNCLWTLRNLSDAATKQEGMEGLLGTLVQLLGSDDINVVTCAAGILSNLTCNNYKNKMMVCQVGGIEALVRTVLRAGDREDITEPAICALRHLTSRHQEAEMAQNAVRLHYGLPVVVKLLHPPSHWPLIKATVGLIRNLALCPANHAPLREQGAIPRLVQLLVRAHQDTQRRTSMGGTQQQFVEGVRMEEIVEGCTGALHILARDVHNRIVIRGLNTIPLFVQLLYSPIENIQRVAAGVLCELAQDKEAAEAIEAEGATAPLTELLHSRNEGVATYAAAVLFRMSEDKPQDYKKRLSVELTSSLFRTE

| Molecule | Inhibition of proliferation of colon cancer cell line HCT116 [1] | Ki [2, 3] [µM] | Ki ([2]; Table IV, FP assay, read-out: Ki ± SD β-catenin/Tcf4) [µM] |
| --- | --- | --- | --- |
| 5-(2-(2H-TETRAZOL-5-YL)ETHYL)-1H-INDAZOL-1-OL [Compound 12] | inhibit the proliferation | – | – |
| COc1c(C[C@@H](C)OC(=O)Oc2ccc(O)cc2)c2c3c(C[C@@H](C)OC(=O)c4ccccc4)c(OC)c(=O)c4c(O)cc(OC)c(c5c(OC)cc(O)c(c1=O)c52)c43 [PKF115-584, reference compound] | – | 17.8 ± 2.13 | 17.8 ± 2.13 |
| O=c1[nH]c(Cc2ccc3c(c2)nnn3O)no1 [Compound 2, 3-((1-HYDROXY-1H-BENZO[D][1,2,3]TRIAZOL-5-YL)METHYL)-1,2,4-OXADIAZOL-5(4H)-ONE] | – | 165.4 ± 1.45 | – |
| O=c1[nH]c(Cc2ccc3c(cnn3O)c2)no1 [Compound 10, 3-((1-HYDROXY-1H-INDAZOL-5-YL)METHYL)-1,2,4-OXADIAZOL-5(4H)-ONE] | – | 125 ± 1.3 | – |
